Where a SMILES comes first, the peptide text is derived from it. Bridges are numbered along the chain shown (N, C = ends). [ ]: non-standard residue; d: D form. The star is where a group is joined. hPhe(3,5-F2-4-CF3) = N[C@@H](CCc1cc(F)c(C(F)(F)F)c(F)c1)C(=O)O; hPhe(3-Cl-4-CF3) = N[C@@H](CCc1ccc(C(F)(F)F)c(Cl)c1)C(=O)O; NPrPhe(4-CF3) = CCCN[C@@H](Cc1ccc(C(F)(F)F)cc1)C(=O)O; NEtPhe(4-Me) = CCN[C@@H](Cc1ccc(C)cc1)C(=O)O; NMeGly(cPent) = CN[C@H](C(=O)O)C1CCCC1; Pro(4,4-Me2) = CC1(C)CN[C@H](C(=O)O)C1; NMeD = CN[C@@H](CC(=O)O)C(=O)O; NMeL = CN[C@@H](CC(C)C)C(=O)O; αMeV = CC(C)[C@](C)(N)C(=O)O; NMeV = CN[C@H](C(=O)O)C(C)C; Morpholide = C1CN(*)CCO1; NMeA = CN[C@@H](C)C(=O)O; Ac5c = NC1(C(=O)O)CCCC1; Aze = O=C(O)[C@@H]1CCN1; NEtG = CCNCC(=O)O; Sar = CNCC(=O)O
Columns and labels:
[1] = target: GDP-bound HRAS wild-type protein (Homo sapiens, UniProt P01112); test: Binding to HRAS by surface plasmon resonance (SPR), Single Cycle Kinetics; details: SPR
Sequence of GDP-bound HRAS wild-type protein (P01112 whole entry): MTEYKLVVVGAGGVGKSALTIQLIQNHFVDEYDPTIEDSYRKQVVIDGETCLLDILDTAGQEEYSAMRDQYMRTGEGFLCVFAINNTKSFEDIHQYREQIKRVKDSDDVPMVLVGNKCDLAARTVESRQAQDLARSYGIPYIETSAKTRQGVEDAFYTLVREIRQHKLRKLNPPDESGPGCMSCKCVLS

[2] = target: GDP-bound NRAS wild-type protein (Homo sapiens, UniProt P01111); test: Binding to NRAS by surface plasmon resonance (SPR), Single Cycle Kinetics; details: SPR
Sequence of GDP-bound NRAS wild-type protein (P01111 whole entry): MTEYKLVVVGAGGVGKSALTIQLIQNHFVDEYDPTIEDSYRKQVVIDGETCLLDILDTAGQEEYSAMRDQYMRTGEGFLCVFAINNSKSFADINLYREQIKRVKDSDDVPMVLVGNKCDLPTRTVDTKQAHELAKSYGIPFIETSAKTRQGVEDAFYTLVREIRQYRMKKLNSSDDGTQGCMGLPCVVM

## CCC[C@H]1C(=O)N[C@@H]([C@@H](C)CC)C(=O)N(C)CC(=O)N(C)[C@H]2C/C=C\CCN(C2=O)[C@@H](Cc2ccc(C)cc2)C(=O)N(C)CC(=O)N[C@@H](CCc2ccc(C(F)(F)F)c(Cl)c2)C(=O)N2C[C@H](C)C[C@H]2C(=O)NC2(CC(C)(C)C2)C(=O)N(C)[C@@H](C2CCCC2)C(=O)N(C)[C@H](C(=O)N(C)C)CC(=O)N1C [PP2210]
[1]; GDP-bound HRAS wild-type vs GDP-bound KRAS wild-type
  HRAS/KRAS (ratio of KD value with respect to HRAS to KD value with respect to KRAS): B (a compound having 3 or more and less than 10 is denoted as B)
[2]; GDP-bound NRAS wild-type vs GDP-bound KRAS wild-type
  NRAS/KRAS (ratio of KD value with respect to NRAS to KD value with respect to KRAS): A (a compound having 10 or more and less than 20 is denoted as A)

## CC[C@H](C)[C@@H]1NC(=O)[C@H](CC(C)C)N(C)C(=O)C[C@@H](C(=O)N2CCOCC2)N(C)C(=O)[C@H](C(C)C)N(C)C(=O)C2(CCCC2)NC(=O)[C@@H]2CCCN2C(=O)[C@H](CCc2ccc(C(F)(F)F)c(Cl)c2)NC(=O)CN(C)C(=O)[C@H](Cc2ccc(C)cc2)N(CC)C(=O)[C@@H]2CCN2C(=O)[C@H](C)N(C)C1=O [PP0015] ([NMeL]I[NMeA][Aze][NEtPhe(4-Me)][Sar][hPhe(3-Cl-4-CF3)]P[Ac5c][NMeV][NMeD]-Morpholide; lactam N-11)
[1]
  HRAS/KRAS (ratio of KD for GDP-bound HRAS wild-type to KD for KRAS): C (A compound having a KD ratio of 0.1 or more and less than 3 is denoted as C)
[2]
  NRAS/KRAS (ratio of KD for GDP-bound NRAS wild-type to KD for KRAS): C (A compound having a KD ratio of 0.1 or more and less than 3 is denoted as C)

## CCCN1C(=O)CN(C)C(=O)CN(C)C(=O)[C@H]([C@@H](C)CC)NC(=O)[C@H](CC(C)C)N(C)C(=O)C[C@@H](C(=O)N2CCOCC2)N(C)C(=O)[C@H](C2CCCC2)N(C)C(=O)C2(CCCC2)NC(=O)[C@@H]2CCCN2C(=O)[C@H](CCc2ccc(C(F)(F)F)c(Cl)c2)NC(=O)CN(C)C(=O)[C@@H]1Cc1ccc(C(F)(F)F)cc1 [PP0060] ([NMeL]I[Sar][Sar][NPrPhe(4-CF3)][Sar][hPhe(3-Cl-4-CF3)]P[Ac5c][NMeGly(cPent)][NMeD]-Morpholide; lactam N-11)
[1]
  HRAS/KRAS (ratio of KD for GDP-bound HRAS wild-type to KD for KRAS): B (a compound having 3 or more and less than 10 is denoted as B)
[2]
  NRAS/KRAS (ratio of KD for GDP-bound NRAS wild-type to KD for KRAS): B (a compound having 3 or more and less than 10 is denoted as B)

## CCCN1C(=O)CN(C)C(=O)CN(CC)C(=O)[C@H]([C@@H](C)CC)NC(=O)[C@H](CC(C)C)N(C)C(=O)C[C@@H](C(=O)N2CCOCC2)N(C)C(=O)[C@H](C2CCCC2)N(C)C(=O)C2(CCCC2)NC(=O)[C@@H]2CC(C)(C)CN2C(=O)[C@H](CCc2ccc(C(F)(F)F)c(Cl)c2)NC(=O)CN(C)C(=O)[C@@H]1Cc1ccc(C(F)(F)F)cc1 [PP0450] ([NMeL]I[NEtG][Sar][NPrPhe(4-CF3)][Sar][hPhe(3-Cl-4-CF3)][Pro(4,4-Me2)][Ac5c][NMeGly(cPent)][NMeD]-Morpholide; lactam N-11)
[1]
  HRAS/KRAS (ratio of KD value with respect to GDP-bound HRAS wild-type protein to KD value with respect to KRAS): C (A compound having a KD ratio of 0.1 or more and less than 3 is denoted as C)
[2]
  NRAS/KRAS (ratio of KD value with respect to GDP-bound NRAS wild-type protein to KD value with respect to KRAS): B (a compound having 3 or more and less than 10 is denoted as B)

## CCCN1C(=O)CN(CC)C(=O)CNC(=O)[C@H]([C@@H](C)CC)NC(=O)[C@H](CC(C)C)N(C)C(=O)C[C@@H](C(=O)N2CCOCC2)N(C)C(=O)[C@H](C2CCCC2)N(C)C(=O)C2(CCCC2)NC(=O)[C@@H]2CCCN2C(=O)[C@H](CCc2ccc(C(F)(F)F)c(Cl)c2)NC(=O)CN(C)C(=O)[C@@H]1Cc1ccc(C(F)(F)F)cc1 [PP1968] ([NMeL]IG[NEtG][NPrPhe(4-CF3)][Sar][hPhe(3-Cl-4-CF3)]P[Ac5c][NMeGly(cPent)][NMeD]-Morpholide; lactam N-11)
[1]; KD ratio, GDP-bound HRAS wild-type vs GDP-bound KRAS wild-type
  HRAS/KRAS (ratio of KD value for HRAS to KD value for KRAS): C (A compound having a KD ratio of 0.1 or more and less than 3 is denoted as C)
[2]; KD ratio, GDP-bound NRAS wild-type vs GDP-bound KRAS wild-type
  NRAS/KRAS (ratio of KD value for NRAS to KD value for KRAS): C (A compound having a KD ratio of 0.1 or more and less than 3 is denoted as C)

## CCCN1C(=O)[C@@H]2CCN2C(=O)CN(C)C(=O)[C@H]([C@@H](C)CC)NC(=O)[C@H](CC(C)C)N(C)C(=O)C[C@@H](C(=O)N2CCOCC2)N(C)C(=O)[C@H](C2CCCC2)N(C)C(=O)[C@](C)(C(C)C)NC(=O)[C@@H]2CCCN2C(=O)[C@H](CCc2cc(F)c(C(F)(F)F)c(F)c2)NC(=O)CN(C)C(=O)[C@@H]1Cc1ccc(C(F)(F)F)cc1 [PP0792] ([NMeL]I[Sar][Aze][NPrPhe(4-CF3)][Sar][hPhe(3,5-F2-4-CF3)]P[αMeV][NMeGly(cPent)][NMeD]-Morpholide; lactam N-11)
[1]
  HRAS/KRAS (ratio of KD value with respect to GDP-bound HRAS wild-type protein to KD value with respect to KRAS): B (a compound having 3 or more and less than 10 is denoted as B)
[2]
  NRAS/KRAS (ratio of KD value with respect to GDP-bound NRAS wild-type protein to KD value with respect to KRAS): C (A compound having a KD ratio of 0.1 or more and less than 3 is denoted as C)

## CC[C@H](C)[C@@H]1NC(=O)[C@H](CC(C)C)N(C)C(=O)C[C@@H](C(=O)N2CCOCC2)N(C)C(=O)[C@H](C2CCCC2)N(C)C(=O)C2(CCCC2)NC(=O)[C@@H]2CCCN2C(=O)[C@H](CCc2ccc(C(F)(F)F)c(Cl)c2)NC(=O)CN(C)C(=O)[C@H](Cc2ccc(OC(F)(F)F)cc2)N2C/C=C\CC[C@@H](C2=O)N(C)C(=O)CN(C)C1=O [PP0610]
[1]
  HRAS/KRAS (ratio of KD value with respect to GDP-bound HRAS wild-type protein to KD value with respect to KRAS): B (a compound having 3 or more and less than 10 is denoted as B)
[2]
  NRAS/KRAS (ratio of KD value with respect to GDP-bound NRAS wild-type protein to KD value with respect to KRAS): B (a compound having 3 or more and less than 10 is denoted as B)

From patent US20250230193A1, “CYCLIC COMPOUND HAVING SELECTIVE KRAS INHIBITORY EFFECT ON HRAS AND NRAS” (CHUGAI SEIYAKU KABUSHIKI KAISHA, priority 2022, published 2025)
